Experimental data from patent US8258138B2, “Potassium channel blockers” (Xention Limited, priority 2008, dated 2012).

Target: T1, human Kv1.3 (Homo sapiens, UniProt P22001)
T1 construct: expressed in transfected cells; host or cells: stably transfected cells grown in medium for CHO cells
Test: Kv1.3 Autopatch electrophysiology (whole cell patch-clamp, inhibition of charge movement)
Format: cell-based
Conditions: compound at 1 μM, cells stably transfected with human Kv1.3, room temperature, total charge during step to +30 mV relative to control; for inhibition at 1 µM: read-out: hKv1.3 % inh.
Experimental: Kv1.3 Autopatch Electrophysiology Method
Compounds were tested on these cells using the AutoPatch technology in whole cell mode.
The external bathing solution contained (in mM): 150 NaCl, 10 KCl, 1 MgCl2, 3 CaCl2, 10 HEPES, pH 7.4 with NaOH. Patch pipettes were filled with an electrode solution of composition (in mM): 100 K-Gluconate, 20 KCl, 1 MgCl2, 1 CaCl2, 10 HEPES, 11 EGTA, 5 ATP-Na2, 2 Glutathione pH 7.2 with KOH.
Compounds were dissolved in DMSO (100%) and made up in the external bather at a concentration of 1 μM immediately prior to use. All experiments were conducted at room temperature.
A cell suspension (10 ml), with a density of 6×10^6 cells, was aliquoted into a 15 ml centrifuge tube and stored at 4° C. before use. Prior to use a tube was taken and centrifuged at 1000 rpm for 4 mins at room temperature. The supernatant was then discarded, leaving a cell pellet at the bottom of the tube. The pellet was then resuspended using 1 ml of cold (4° C.), filtered (0.22 μm), 0.05% BSA/bather solution (0.05 g BSA/100 ml bather). The bottom of the tube was manually agitated followed by gentle tituration. The cell suspension was then placed in the AutoPatch™ temperature controlled cell-hotel at 14° C. and regularly titurated.
A length of Teflon capillary tubing was dipped into the cell suspension solution, and a column of fluid was taken up by negative pressure. The column of fluid was in electrically connectivity with a Ag/AgCl reference electrode. Borosilicate glass patch pipettes (from 1.5 mm OD, thin-walled filamented, GC150-TF capillary glass, Harvard) were pulled using a DMZ pipette puller (Zeitz Instruments), and were back-filled using the internal pipette solution, being careful that no bubbles remained at the tip or in the body of the pipette. Patch pipettes typically had resistances of 2.5-3.5 MΩ. Once filled, the pipette tip and a proportion of the shaft (˜15 mm) were dipped into Sigmacote (Sigma). The recording pipettes were placed in a multiwell array and mounted on the AutoPatch™ machine. Automated patch-clamping and drug-application was initiated by the operator, but thereafter AutoPatch.exe continued the experiment providing that pre-set conditions and criteria were satisfied.
Whole cell patch-clamp recordings were made using the AutoPatch™ rig, which incorporated an EPC9 or EPC10 amplifier (HEKA, Germany) under control of Pulse software (v8.54 or v8.76, HEKA, Germany), a cell applicator, automated drug application system (DAS), valve controller (VF1) and a suction device all at room temperature. This equipment was completely under the control of AutoPatch.exe and operator intervention was only made when there was a requirement to refill the bather reservoirs or to prevent the loss of a cell due to a technical error.
Cells were continuously perfused with external solution at a flow rate of ˜2 ml/minute.
Electrophysiology voltage-step protocols and analysis of data was performed as follows. Data were sampled at 5 kHz, and filtered with a −3 dB bandwidth of 2.5 kHz. Cells were held at a voltage of −80 mV. Currents were evoked by a voltage step to +30 mV for 500 ms in duration applied every 15 s. Online analysis of the hKv1.3 current during the application of compounds was performed by the Pulse (v8.54 or v8.76, HEKA, Germany), Excel (Microsoft, USA) and AutoPatch™ software, with the total charge measured during the whole of voltage step. Inhibition of charge movement in the presence of drug was calculated relative to control.

T1 sequence (P22001 whole entry): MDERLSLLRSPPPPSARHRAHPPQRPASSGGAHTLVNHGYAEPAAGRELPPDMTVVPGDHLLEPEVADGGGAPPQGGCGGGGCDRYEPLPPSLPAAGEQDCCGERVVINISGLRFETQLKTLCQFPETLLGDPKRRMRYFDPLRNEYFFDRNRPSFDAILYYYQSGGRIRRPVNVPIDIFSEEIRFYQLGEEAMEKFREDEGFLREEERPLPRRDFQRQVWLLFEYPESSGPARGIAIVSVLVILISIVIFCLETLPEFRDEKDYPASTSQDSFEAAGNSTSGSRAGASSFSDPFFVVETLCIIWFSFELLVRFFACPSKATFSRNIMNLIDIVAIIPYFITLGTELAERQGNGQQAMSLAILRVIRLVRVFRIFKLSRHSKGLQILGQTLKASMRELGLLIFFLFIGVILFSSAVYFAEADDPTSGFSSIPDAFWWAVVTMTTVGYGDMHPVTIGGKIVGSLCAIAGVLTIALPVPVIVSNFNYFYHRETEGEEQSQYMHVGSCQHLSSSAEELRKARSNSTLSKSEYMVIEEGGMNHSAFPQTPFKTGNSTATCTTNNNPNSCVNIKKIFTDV

Molecule	inhibition at 1 µM [%]	hKv1.3 % inh. [%]
1-Methyl-1H-imidazole-4-sulfonic acid benzyl-[4-(3-phenyl-piperidine-1-carbonyl)-phenyl]-amide [Example 64]		86
N#Cc1ccc(CN(c2ccc(C(=O)N3CCN(c4ccccc4)CC3)cc2)S(=O)(=O)c2ccccc2)cc1 [Example 2, N-(4-Cyano-benzyl)-N-[4-(4-phenyl-piperazine-1-carbonyl)-phenyl]-benzenesulfonamide]	76	
O=C(c1ccc(N(Cc2ccccc2)S(=O)(=O)c2ccccc2)cc1)N1CCCCC1 [Example 3, N-Benzyl-N-[4-(piperidine-1-carbonyl)-phenyl]-benzenesulfonamide]	94	
Cc1ccc(C2CCCN(C(=O)c3ccc(N(Cc4ccc(Cl)cc4)S(=O)(=O)c4ccccc4)cc3)C2)cc1 (stereo not drawn) [Example 4, N-(4-Chloro-benzyl)-N-[4-(3-p-tolyl-piperidine-1-carbonyl)-phenyl]-benzenesulfonamide]	67	
CN(C)S(=O)(=O)N(Cc1ccccc1)c1ccc(C(=O)N2CCN(c3ccccc3C#N)CC2)cc1 [Example 5, N-Benzyl-N′N′-dimethyl-N-{4-[4-(2-cyano-phenyl)-piperazine-1-carbonyl]-phenyl}-sulfamide]		42
CN(C)S(=O)(=O)N(Cc1ccccc1)c1ccc(C(=O)N2CCOC(c3ccccc3)C2)cc1 (stereo not drawn) [Example 6, N-Benzyl-N-[4-(2-phenyl-morpholine-4-carbonyl)-phenyl]-N′,N′-dimethylsulfamide]	60	
CN1CCN(C(=O)c2ccc(N(Cc3ccccc3)S(=O)(=O)c3cn(C)cn3)cc2)CC1 [Example 7, 1-Methyl-1H-imidazole-4-sulfonic acid benzyl-[4-(4-methyl-piperazine-1-carbonyl)-phenyl]-amide]	38	
O=C(c1ccc(N(Cc2ccccc2)S(=O)(=O)c2ccc3ccccc3c2)cc1)N1CCN(c2ccccc2)CC1 [Example 13, Naphthalene-2-sulfonic acid benzyl-[4-(4-phenyl-piperazine-1-carbonyl)-phenyl]-amide]	51	
N#Cc1ccc(S(=O)(=O)N(Cc2ccccc2)c2ccc(C(=O)N3CCN(c4ccccc4)CC3)cc2)cc1 [Example 22, N-Benzyl-4-cyano-N-[4-(4-phenyl-piperazine-1-carbonyl)-phenyl]-benzenesulfonamide]	39	
Cc1cccc(S(=O)(=O)N(Cc2ccccc2)c2ccc(C(=O)N3CCN(c4ccccc4)CC3)cc2)c1 [Example 27, N-Benzyl-3-methyl-N-[4-(4-phenyl-piperazine-1-carbonyl)-phenyl]-benzenesulfonamide]	55	
CC(C)c1noc(C2CCCN(C(=O)c3ccc(N(Cc4ccccc4)S(=O)(=O)N(C)C)cc3)C2)n1 (stereo not drawn) [Example 69, N-Benzyl-N′N′-dimethyl-N-{4-[3-(3-isopropyl-[1,2,4]oxadiazol-5-yl)-piperidine-1-carbonyl]-phenyl}-sulfamide]		31
CN(C)S(=O)(=O)N(Cc1ccccc1)c1ccc(C(=O)N2CCC(OCc3ccccc3)C2)cc1 (stereo not drawn) [Example 70, N-Benzyl-N′N′-dimethyl-N-[4-(3-benzyloxy-pyrrolidine-1-carbonyl)-phenyl]-sulfamide]		26
CN(C)S(=O)(=O)N(Cc1ccccc1)c1ccc(C(=O)N2CCC(O)(c3ccccc3)CC2)cc1 [Example 71, N-Benzyl-N′N′-dimethyl-N-[4-(4-hydroxy-4-phenyl-piperidine-1-carbonyl)-phenyl]-sulfamide]		27
CN(C)S(=O)(=O)N(Cc1ccccc1)c1ccc(C(=O)N2CCC(Oc3ccccc3)CC2)cc1 [Example 72, N-Benzyl-N′N′-dimethyl-N-[4-(4-phenoxy-piperidine-1-carbonyl)-phenyl]-sulfamide]		68

Further lines, with some results ahead:

inhibition at 1 µM [%]	Molecule	hKv1.3 % inh. [%]
85	Cc1ccccc1CN(c1ccc(C(=O)N2CCN(c3ccccc3)CC2)cc1)S(=O)(=O)c1ccccc1 [Example 34, N-(2-Methyl-benzyl)-N-[4-(4-phenyl-piperazine-1-carbonyl)-phenyl]-benzenesulfonamide]	
50	O=C(c1ccc(N(Cc2ccc(C(F)(F)F)cc2)S(=O)(=O)c2ccccc2)cc1)N1CCN(c2ccccc2)CC1 [Example 36, N-[4-(4-Phenyl-piperazine-1-carbonyl)-phenyl]-N-(4-trifluoromethyl-benzyl)-benzenesulfonamide]	
46	O=C(c1ccc(N(Cc2cccc(OC(F)(F)F)c2)S(=O)(=O)c2ccccc2)cc1)N1CCN(c2ccccc2)CC1 [Example 37, N-[4-(4-Phenyl-piperazine-1-carbonyl)-phenyl]-N-(3-trifluoromethoxy-benzyl)-benzenesulfonamide]	
50	N#Cc1ccccc1CN(c1ccc(C(=O)N2CCN(c3ccccc3)CC2)cc1)S(=O)(=O)c1ccccc1 [Example 38, N-(2-Cyano-benzyl)-N-[4-(4-phenyl-piperazine-1-carbonyl)-phenyl]-benzenesulfonamide]	
81	O=C(c1ccc(N(Cc2ccccc2)S(=O)(=O)c2ccco2)cc1)N1CCN(c2ccccc2)CC1 [Example 41, Furan-2-sulfonic acid benzyl-[4-(4-phenyl-piperazine-1-carbonyl)-phenyl]-amide]	
54	COc1cccc(CN(c2ccc(C(=O)N3CCN(c4ccccc4)CC3)cc2)S(=O)(=O)c2cn(C)cn2)c1 [Example 45, 1-Methyl-1H-imidazole-4-sulfonic acid (3-methoxy-benzyl)-[4-(4-phenyl-piperazine-1-carbonyl)-phenyl]-amide]	
50	Cc1ncc(S(=O)(=O)N(Cc2ccccc2)c2ccc(C(=O)N3CCN(c4ccccc4)CC3)cc2)n1C [Example 47, 2,3-Dimethyl-3H-imidazole-4-sulfonic acid benzyl-[4-(4-phenyl-piperazine-1-carbonyl)-phenyl]-amide]	
42	CC1CN(C(=O)c2ccc(N(Cc3ccccc3)S(=O)(=O)c3ccccc3)cc2)CC(C)O1 (stereo not drawn) [Example 56, N-Benzyl-N-[4-(2,6-dimethyl-morpholine-4-carbonyl)-phenyl]-benzenesulfonamide]	
81	O=C(c1ccc(N(Cc2ccccc2)S(=O)(=O)c2ccccc2)cc1)N1CCC(O)(c2ccccc2)CC1 [Example 58, N-Benzyl-N-[4-(4-hydroxy-4-phenyl-piperidine-1-carbonyl)-phenyl]benzenesulfonamide]	
83	Cc1noc(C2CCCN(C(=O)c3ccc(N(Cc4ccc(Cl)cc4)S(=O)(=O)c4cn(C)cn4)cc3)C2)n1 (stereo not drawn) [Example 60, 1-Methyl-1H-imidazole-4-sulfonic acid (4-chloro-benzyl)-{4-[3-(3-methyl-[1,2,4]oxadiazol-5-yl)-piperidine-1-carbonyl]-phenyl}-amide]	
57	Cc1noc(C2CCCN(C(=O)c3ccc(N(Cc4ccccc4)S(=O)(=O)c4cn(C)cn4)cc3)C2)n1 (stereo not drawn) [Example 65, 1-Methyl-1H-imidazole-4-sulfonic acid benzyl-{4-[3-(3-methyl-[1,2,4]oxadiazol-5-yl)-piperidine-1-carbonyl]-phenyl}-amide]	
43	Cn1cnc(S(=O)(=O)N(Cc2ccc(Cl)cc2)c2ccc(C(=O)N3CCCCC3)cc2)c1 [Example 67, 1-Methyl-1H-imidazole-4-sulfonic acid (4-chloro-benzyl)-[4-(piperidine-1-carbonyl)-phenyl]-amide]	
67	CN(C)S(=O)(=O)N(Cc1ccccc1)c1ccc(C(=O)N2CCOC(c3ccccc3)C2)cc1F (stereo not drawn) [Example 73, N-Benzyl-N-[2-fluoro-4-(2-phenyl-morpholine-4-carbonyl)-phenyl]-N′,N′-dimethylsulfamide]	
